From patent publication US12279521B2, “Materials for organic electroluminescent devices” (Merck Patent GmbH, priority 2019, dated 2025)
≈ marks a conversion by molar mass, not a printed value. Like-named read-outs stand apart in the source and are kept apart here.

Key:
[1] = Baking of emission layer film at elevated temperature: state of film; type: physicochemical; conditions: for State of film after baking at elevated temp.: EML mixture per Table 5
Source text: The production of the corresponding OLED components is described below.
The emission layer is composed of at least one matrix material (host material) and an emitting dopant (emitter). In addition, it is possible to use mixtures of a plurality of matrix materials and co-dopants. Details given in such a form as TMM-A (92%):dopant (8%) mean here that the material TMM-A is present in the emission layer in a proportion by weight of 92% and dopant in a proportion by weight of 8%. The mixture for the emission layer is dissolved in toluene or optionally chlorobenzene. The typical solids content of such solutions is about 17 g/I when, as here, the layer thickness of 60 nm which is typical of a device is to be achieved by means of spin-coating. The layers are spun on in an inert gas atmosphere, argon in the present case, and baked for 10 minutes.

[2] = Solubility in organic solvents via HPTLC (after 24 hours and 7 days); type: physicochemical; conditions: for solubility at 24 h: 25 °C; for solubility at 24 h / solubility at 7 days: organic solvent or mixture, thermodynamic from solid; for solubility at 24 h / Solubility after 24 hours, Cyclohexylbenzene / Solubility after 24 hours, Mesitylene / Solubility after 24 hours, Tetralin / Solubility after 24 hours, Toluene: room temperature; for solubility at 7 days / Solubility after 7 days, Cyclohexylbenzene / Solubility after 7 days, Mesitylene / Solubility after 7 days, Tetralin / Solubility after 7 days, Toluene: 7 days storage at room temperature
Procedure: One way of processing the materials of the invention is from solution. In addition, it is a feature of materials of the invention that their […] stability is elevated, as apparent from the long-term solubility data in Table 1.
Method of Determining Solubility Via HPTLC
Sample preparation: The material is weighed out in two 25 mg portions (W1, W2), 0.5 ml of solvent is added, and the mixture is shaken at 60° C. for 60 minutes and then at 25° C. and 600 rpm for 24 h. When the solution is clear, more solid material is added until a saturated solution is formed. After being cooled to room temperature, the samples are filtered through a syringe filter (0.2 μm). The solutions are stored in glass vials at room temperature for 7 days, and the solubility is determined by HPTLC on days 1 and 7. For this purpose, the filtered solutions are diluted.
Calibration: Making up a standard solution: about 6 mg of substance are dissolved in 20 ml of 2-methyl-THF. If it is not possible to dissolve the material under these conditions, the concentration can be reduced. The stock solution is diluted for the calibration (standardization).
Chromatographic conditions (HPTLC): plate: HPTLC RP 18 F254, 10×20 cm eluent: methanol/2-methyl-THF 70/30 (V/V)
HPTLC measurement: The HPTLC plate is scanned by a TLC scanner, peaks are integrated and a calibration function is determined.

[3] = Ref. temp. 150, elevated temp. 180
[4] = Ref. temp. 160, elevated temp. 170
[5] = Ref. temp. 160, elevated temp. 180
[6] = cyclohexylbenzene, read-out: Solubility after 24 hours, Cyclohexylbenzene
[7] = mesitylene, read-out: Solubility after 24 hours, Mesitylene
[8] = tetralin, read-out: Solubility after 24 hours, Tetralin
[9] = toluene, read-out: Solubility after 24 hours, Toluene
[10] = cyclohexylbenzene, read-out: Solubility after 7 days, Cyclohexylbenzene
[11] = mesitylene, read-out: Solubility after 7 days, Mesitylene
[12] = tetralin, read-out: Solubility after 7 days, Tetralin
[13] = toluene, read-out: Solubility after 7 days, Toluene
[14] = Ref. temp. 150, elevated temp. 170

State of film after baking at elevated temp. [1, 3] | solubility at 24 h [2, 6] | solubility at 24 h [2, 7] | solubility at 24 h [2, 8] | solubility at 24 h [2, 9] | solubility at 7 days [2, 10] | solubility at 7 days [2, 11] | solubility at 7 days [2, 12] | solubility at 7 days [2, 13] | Solubility after 24 hours, Cyclohexylbenzene ([2]; cyclohexylbenzene) | Solubility after 7 days, Cyclohexylbenzene ([2]; cyclohexylbenzene) | Solubility after 24 hours, Mesitylene ([2]; mesitylene) | Solubility after 7 days, Mesitylene ([2]; mesitylene) | Solubility after 24 hours, Tetralin ([2]; tetralin) | Solubility after 7 days, Tetralin ([2]; tetralin) | Solubility after 24 hours, Toluene ([2]; toluene) | Solubility after 7 days, Toluene ([2]; toluene) | SMILES | also measured
cloudy | < 20 mg/mL | > 50 mg/mL | > 50 mg/mL | > 50 mg/mL | < 20 mg/mL | < 40 mg/mL | > 50 mg/mL | > 50 mg/mL |  |  |  |  |  |  |  |  | c1ccc(-c2cccc(-c3cc(-c4cccc(-c5ccccc5)c4)cc(C4(c5cc(-c6cccc(-c7ccccc7)c6)cc(-c6cccc(-c7ccccc7)c6)c5)c5ccccc5-c5ccccc54)c3)c2)cc1 [Compound B-1, reference compound] | State of film after baking at elevated temp. [1, 4]: slightly cloudy; State of film after baking at elevated temp. [1, 5]: cloudy
 | > 50 mg/mL | < 50 mg/mL | < 50 mg/mL | > 50 mg/mL | > 50 mg/mL | < 40 mg/mL | < 50 mg/mL | > 50 mg/mL |  |  |  |  |  |  |  |  | c1ccc(-c2cccc(-c3cc(-c4cccc(-c5ccccc5)c4)cc(C4(c5cc(-c6cccc(-c7ccccc7)c6)cc(-c6cccc(-c7ccccc7)c6)c5)c5ccccc5-c5ccc(-c6ccccc6)cc54)c3)c2)cc1 [Compound B-3, reference compound] | 
clear |  |  |  |  |  |  |  |  | <1 mg/mL | <1 mg/mL | >50 mg/mL | 50 mg/mL (≈ 49.8 mM) | >50 mg/mL | >50 mg/mL | >50 mg/mL | >50 mg/mL | c1ccc(-c2cc(-c3ccccc3)cc(-c3cccc(-c4cccc(C5(c6cccc(-c7cccc(-c8cc(-c9ccccc9)cc(-c9ccccc9)c8)c7)c6)c6ccccc6-c6c(-c7ccccc7)cccc65)c4)c3)c2)cc1 [Compound M-0002] | State of film after baking at elevated temp. [1, 5]: clear; baking of the layer at higher temperature, cloudiness, compared with B-2 ([1]; versus B-2): can be baked at higher temperature without cloudiness
 |  |  |  |  |  |  |  |  | >50 mg/mL | >50 mg/mL | >50 mg/mL | >50 mg/mL | >50 mg/mL | <50 mg/mL | >50 mg/mL | >50 mg/mL | c1ccc(-c2cccc(-c3cc(-c4cccc(-c5ccccc5)c4)cc(C4(c5cc(-c6cccc(-c7ccccc7)c6)cc(-c6cccc(-c7ccccc7)c6)c5)c5ccccc5-c5c(-c6ccccc6)cccc54)c3)c2)cc1 [Compound M-0005] | State of film after baking at elevated temp. [1, 14]: clear; State of film after baking at elevated temp. [1, 4]: clear; solubility in cyclohexylbenzene compared with B-1 ([2]; cyclohexylbenzene, versus B-1): significantly better; long-term stability of the solution in mesitylene compared with B-1 ([2]; mesitylene, versus B-1): significantly better

Continued, compound first:

SMILES | State of film after baking at elevated temp. [1, 3] | solubility at 24 h [2, 6] | solubility at 24 h [2, 7] | solubility at 24 h [2, 8] | solubility at 24 h [2, 9] | solubility at 7 days [2, 10] | solubility at 7 days [2, 11] | solubility at 7 days [2, 12] | solubility at 7 days [2, 13] | Solubility after 24 hours, Cyclohexylbenzene ([2]; cyclohexylbenzene) | Solubility after 7 days, Cyclohexylbenzene ([2]; cyclohexylbenzene) | Solubility after 24 hours, Mesitylene ([2]; mesitylene) | Solubility after 7 days, Mesitylene ([2]; mesitylene) | Solubility after 24 hours, Tetralin ([2]; tetralin) | Solubility after 7 days, Tetralin ([2]; tetralin) | Solubility after 24 hours, Toluene ([2]; toluene) | Solubility after 7 days, Toluene ([2]; toluene) | also measured
c1ccc(-c2cc(-c3ccccc3)cc(-c3cccc(-c4cccc(C5(c6cccc(-c7cccc(-c8cc(-c9ccccc9)cc(-c9ccccc9)c8)c7)c6)c6ccccc6-c6ccccc65)c4)c3)c2)cc1 [Compound B-2, reference compound] |  | > 50 mg/mL | < 1 mg/mL | > 50 mg/mL | < 1 mg/mL | < 1 mg/mL | < 1 mg/mL | < 20 mg/mL | < 1 mg/mL |  |  |  |  |  |  |  |  | State of film after baking at elevated temp. [1, 5]: slightly cloudy
c1ccc(-c2cccc(-c3cc(-c4ccccc4)cc(-c4cccc(C5(c6cccc(-c7cc(-c8ccccc8)cc(-c8cccc(-c9ccccc9)c8)c7)c6)c6ccccc6-c6ccccc65)c4)c3)c2)cc1 [Compound B-4, reference compound] | slightly cloudy |  |  |  |  |  |  |  |  |  |  |  |  |  |  |  |  | 
c1ccc(-c2cccc(-c3cc(-c4cccc(-c5ccccc5)c4)cc(C4(c5cc(-c6cccc(-c7ccccc7)c6)cc(-c6cccc(-c7ccccc7)c6)c5)c5ccccc5-c5c(-c6ccccc6-c6ccccc6)cccc54)c3)c2)cc1 [Compound M-0043] | clear |  |  |  |  |  |  |  |  | <50 mg/mL | <50 mg/mL | <50 mg/mL | <50 mg/mL | >50 mg/mL | >50 mg/mL | <50 mg/mL | <50 mg/mL | 
Cc1cc(C)c(-c2cccc3c2-c2ccccc2C3(c2cc(-c3cc(-c4ccc(C(C)(C)C)cc4)cc(-c4ccc(C(C)(C)C)cc4)c3)cc(-c3cc(-c4ccc(C(C)(C)C)cc4)cc(-c4ccc(C(C)(C)C)cc4)c3)c2)c2cc(-c3cc(-c4ccc(C(C)(C)C)cc4)cc(-c4ccc(C(C)(C)C)cc4)c3)cc(-c3cc(-c4ccc(C(C)(C)C)cc4)cc(-c4ccc(C(C)(C)C)cc4)c3)c2)c(C)c1 [Compound M-0086] | clear | > 50 mg/mL | > 50 mg/mL | > 50 mg/mL | > 50 mg/mL | > 50 mg/mL | > 50 mg/mL | > 50 mg/mL | > 50 mg/mL |  |  |  |  |  |  |  |  | 
c1ccc(-c2cc(-c3ccccc3)cc(-c3cccc(-c4cccc(C5(c6cccc(-c7cccc(-c8cc(-c9ccccc9)cc(-c9ccccc9)c8)c7)c6)c6ccccc6-c6c(-c7cccc(-c8ccccc8)c7)cccc65)c4)c3)c2)cc1 [Compound M-0162] | clear | < 50 mg/mL | > 50 mg/mL | > 50 mg/mL | > 50 mg/mL | < 50 mg/mL | > 50 mg/mL | > 50 mg/mL | > 50 mg/mL |  |  |  |  |  |  |  |  | 
Cc1ccc2c(c1)-c1c(-c3cccc(-c4ccccc4)c3)cccc1C2(c1cccc(-c2cccc3c2-c2ccccc2C3(C)C)c1)c1cccc(-c2cccc3c2-c2ccccc2C3(C)C)c1 [Compound M-0172] |  |  |  |  |  |  |  |  |  | <40 mg/mL | <40 mg/mL | <30 mg/mL | <30 mg/mL | <40 mg/mL | <40 mg/mL | <30 mg/mL | <30 mg/mL | State of film after baking at elevated temp. [1, 14]: clear
c1ccc(-c2cc(-c3ccccc3)cc(-c3cccc(-c4cccc(C5(c6cccc(-c7cccc(-c8cc(-c9ccccc9)cc(-c9ccccc9)c8)c7)c6)c6cc7c(cc6-c6c5ccc5c6-c6ccccc6C56c5ccccc5-c5ccccc56)OCO7)c4)c3)c2)cc1 [Compound M-0226] | clear |  |  |  |  |  |  |  |  | <30 mg/mL | <25 mg/mL | <20 mg/mL | <20 mg/mL | <30 mg/mL | <25 mg/mL | <20 mg/mL | <20 mg/mL | solubility in toluene and mesitylene compared with B-2 ([2]; toluene and mesitylene, versus B-2): significantly better; long-term stability of the solutions compared with B-2 ([2]; versus B-2): significantly better
